Species on record: Rattus norvegicus
Assay: Open TG-GATES - Regimen: Single
Format: toxicity, organism-based, Sprague-Dawley
Design: regimen Single, gender Male, age 6 weeks
Details: in vivo, po, 400 mg/kg, route gavage, dose level High; for KIDNEY_L / KIDNEY_R / KIDNEY_TOTAL: tissue Kidney; for LIVER: tissue Liver; for ALT / AST / BUN / CRE / Ca / Cl / DBIL / GLC / IP / LDH / Na / PL / RALB / TBIL / TC / TG / TP / gamma-GTP / ALP: tissue Plasma

CC(C)N(CCC(C(N)=O)(c1ccccc1)c1ccccn1)C(C)C (centres undefined) [DISOPYRAMIDE]
TERMINAL_BW (3 h): 210.5 g
APTT (3 h, tissue Blood): 22.6 s
Bas (3 h, tissue Blood): 0%
Eos (3 h, tissue Blood): 1%
Fbg (3 h, tissue Blood): 327.6 mg/dL
Ht (3 h, tissue Blood): 41.8%
Lym (3 h, tissue Blood): 74.6%
MCHC (3 h, tissue Blood): 32.1%
MCV (3 h, tissue Blood): 62.7 fL
Mono (3 h, tissue Blood): 2.2%
Neu (3 h, tissue Blood): 22%
PT (3 h, tissue Blood): 15.5 s
Plat (3 h, tissue Blood): 127.1 x10_4/uL
RBC (3 h, tissue Blood): 667.8 x10_4/ul
Ret (3 h, tissue Blood): 8%
WBC (3 h, tissue Blood): 55.8 x10_2/uL
KIDNEY_L (3 h): 1 g
KIDNEY_R (3 h): 1 g
KIDNEY_TOTAL (3 h): 1.9 g
LIVER (3 h): 9.8 g
ALT (3 h): 47.4 IU/L
AST (3 h): 85.2 IU/L
BUN (3 h): 12.2 mg/dL
CRE (3 h): 0.1 mg/dL
Ca (3 h): 10.2 mg/dL
Cl (3 h): 106.2 meq/L
DBIL (3 h): 0.002 mg/dL
GLC (3 h): 129.8 mg/dL
IP (3 h): 8.9 mg/dL
LDH (3 h): 264.8 IU/L
Na (3 h): 142.8 meq/L
PL (3 h): 126.6 mg/dL
RALB (3 h): 3 g/dL
TBIL (3 h): 0 mg/dL
TC (3 h): 74.2 mg/dL
TG (3 h): 47.8 mg/dL
TP (3 h): 5.6 g/dL
gamma-GTP (3 h): 1 IU/L
TERMINAL_BW (6 h): 207.1 g
APTT (6 h, tissue Blood): 22.8 s
Bas (6 h, tissue Blood): 0%
Eos (6 h, tissue Blood): 0.4%
Fbg (6 h, tissue Blood): 326 mg/dL
Ht (6 h, tissue Blood): 42.8%
Lym (6 h, tissue Blood): 73.2%
MCHC (6 h, tissue Blood): 31.8%
MCV (6 h, tissue Blood): 62.5 fL
Mono (6 h, tissue Blood): 2.6%
Neu (6 h, tissue Blood): 23.2%
PT (6 h, tissue Blood): 15.4 s
Plat (6 h, tissue Blood): 122.6 x10_4/uL
RBC (6 h, tissue Blood): 685.8 x10_4/ul
Ret (6 h, tissue Blood): 7.5%
WBC (6 h, tissue Blood): 67.9 x10_2/uL
KIDNEY_L (6 h): 1 g
KIDNEY_R (6 h): 1 g
KIDNEY_TOTAL (6 h): 2 g
LIVER (6 h): 9.2 g
ALP (6 h): 1240.8 IU/L
ALT (6 h): 38.8 IU/L
AST (6 h): 74 IU/L
BUN (6 h): 12.2 mg/dL
CRE (6 h): 0.1 mg/dL
Ca (6 h): 10.4 mg/dL
Cl (6 h): 105.8 meq/L
DBIL (6 h): 0.006 mg/dL
GLC (6 h): 157.2 mg/dL
IP (6 h): 8.7 mg/dL
LDH (6 h): 237.8 IU/L
Na (6 h): 140.6 meq/L
PL (6 h): 132.2 mg/dL
RALB (6 h): 3 g/dL
TBIL (6 h): 0.006 mg/dL
TC (6 h): 75.4 mg/dL
TG (6 h): 43.2 mg/dL
TP (6 h): 5.6 g/dL
gamma-GTP (6 h): 1.6 IU/L
TERMINAL_BW (9 h): 208.7 g
APTT (9 h, tissue Blood): 24 s
Bas (9 h, tissue Blood): 0%
Eos (9 h, tissue Blood): 0.4%
Fbg (9 h, tissue Blood): 326 mg/dL
Ht (9 h, tissue Blood): 42.6%
Lym (9 h, tissue Blood): 71.8%
MCHC (9 h, tissue Blood): 31.9%
MCV (9 h, tissue Blood): 62.9 fL
Mono (9 h, tissue Blood): 1.8%
Neu (9 h, tissue Blood): 25.4%
PT (9 h, tissue Blood): 15.7 s
Plat (9 h, tissue Blood): 120.6 x10_4/uL
RBC (9 h, tissue Blood): 677.6 x10_4/ul
Ret (9 h, tissue Blood): 7.7%
WBC (9 h, tissue Blood): 64.5 x10_2/uL
KIDNEY_L (9 h): 1 g
KIDNEY_R (9 h): 1 g
KIDNEY_TOTAL (9 h): 2 g
LIVER (9 h): 9 g
ALP (9 h): 1238 IU/L
ALT (9 h): 41 IU/L
AST (9 h): 79 IU/L
BUN (9 h): 14 mg/dL
CRE (9 h): 0.1 mg/dL
Ca (9 h): 10.6 mg/dL
Cl (9 h): 106 meq/L
DBIL (9 h): 0 mg/dL
GLC (9 h): 145.6 mg/dL
IP (9 h): 8.4 mg/dL
LDH (9 h): 217.4 IU/L
Na (9 h): 142 meq/L
PL (9 h): 130.4 mg/dL
RALB (9 h): 3.1 g/dL
TBIL (9 h): 0 mg/dL
TC (9 h): 70.8 mg/dL
TG (9 h): 63.4 mg/dL
TP (9 h): 5.8 g/dL
gamma-GTP (9 h): 1.4 IU/L
TERMINAL_BW (24 h): 215.7 g
APTT (24 h, tissue Blood): 23.1 s
Bas (24 h, tissue Blood): 0%
Eos (24 h, tissue Blood): 0.8%
Fbg (24 h, tissue Blood): 289.6 mg/dL
Hb (24 h, tissue Blood): 13 g/dL
Ht (24 h, tissue Blood): 40.3%
Lym (24 h, tissue Blood): 83%
MCHC (24 h, tissue Blood): 32.2%
MCV (24 h, tissue Blood): 63.1 fL
Mono (24 h, tissue Blood): 1.6%
PT (24 h, tissue Blood): 16.1 s
Plat (24 h, tissue Blood): 118.5 x10_4/uL
RBC (24 h, tissue Blood): 639.8 x10_4/ul
Ret (24 h, tissue Blood): 6.5%
WBC (24 h, tissue Blood): 82.6 x10_2/uL
KIDNEY_L (24 h): 1 g
KIDNEY_R (24 h): 1 g
KIDNEY_TOTAL (24 h): 1.9 g
LIVER (24 h): 8.8 g
ALP (24 h): 1524 IU/L
ALT (24 h): 48.2 IU/L
AST (24 h): 78.6 IU/L
BUN (24 h): 16 mg/dL
CRE (24 h): 0.2 mg/dL
Ca (24 h): 10.4 mg/dL
Cl (24 h): 106 meq/L
DBIL (24 h): 0 mg/dL
GLC (24 h): 153.2 mg/dL
IP (24 h): 8.8 mg/dL
LDH (24 h): 215.8 IU/L
PL (24 h): 133.2 mg/dL
RALB (24 h): 2.8 g/dL
TBIL (24 h): 0 mg/dL
TC (24 h): 75 mg/dL
TG (24 h): 58.2 mg/dL
TP (24 h): 5.4 g/dL
gamma-GTP (24 h): 2 IU/L
